In assay [1] the test system is MIA PaCa-2 cells. In words: 3D-TGA. Format: cell-based, human. The conditions noted are these: Homo sapiens, read-out: IC50 in 3D-TGA Osimertinib; MIA PACA-2, PAN, KRAS G12C; agent alone.
The subject of assay [2] is NCI-H508 cells. In words: 3D-TGA. Format: cell-based. The conditions noted are these: Homo sapiens, read-out: IC50 in 3D-TGA Osimertinib; NCI-H508, COL, BRAF G596R; agent alone.
The test system of assay [3] is SK-CO-1 cells. In words: 3D-TGA. Format: cell-based. To be noted: Homo sapiens, read-out: IC50 in 3D-TGA Osimertinib; SK-CO-1, COL, KRAS G12V; agent alone.
Assay [4] concerns LS411N cells. The experiment in a line: 3D-TGA. Type of assay: cell-based. To be noted: Homo sapiens, LS-411N, LS411N, COL, BRAF V600E.
For assay [5], the system named is NCI-H358 cells. In words: 3D-TGA. Format: cell-based, human. To be noted: Homo sapiens, read-out: IC50 in 3D-TGA Osimertinib; NCI-H358, LUN, KRAS G12C; agent alone.
In assay [6] the test system is NCI-H1792 cells. The experiment in a line: 3D-TGA. Format: cell-based, human. The conditions noted are these: Homo sapiens, read-out: IC50 in 3D-TGA Osimertinib; NCI-H1792, LUN, KRAS G12C; agent alone.
In assay [7] the test system is NCI-H820 cells. In words: 3D-TGA. Type of assay: cell-based. To be noted: Homo sapiens, read-out: IC50 in 3D-TGA Osimertinib; NCI-H820, LUN, EGFR T790M; agent alone.
Assay [8] concerns NCI-H1975 cells. The experiment in a line: 3D-TGA. To be noted: Homo sapiens, read-out: IC50 in 3D-TGA Osimertinib; NCI-H1975, LUN, EGFR L858R; agent alone. Format: cell-based.
Assay [9] deals with NCI-H1650 cells. In words: 3D-TGA. Type of assay: cell-based. The conditions noted are these: Homo sapiens, NCI-H1650, read-out: IC50 in 3D-TGA Osimertinib.
Assay [10] relates to NCI-H2172 cells. The experiment in a line: 3D-TGA. Format: cell-based. The conditions noted are these: Homo sapiens, read-out: IC50 in 3D-TGA Osimertinib; NCI-H2172, LUN, EGFR L858R; agent alone.
In assay [11] the test system is HCC827 cells. The experiment in a line: cells. The conditions noted are these: Homo sapiens, HCC827, read-out: IC50 in 3D-TGA Osimertinib. Format: cell-based.
Assay [12] relates to HT-29 BRAF^V600E colorectal cancer xenograft. In words: HT-29 colorectal xenograft tumor model. Type of assay: in vivo, athymic nude mice. To be noted: HT-29 BRAFV600E xenograft. The source says:
An integrated translational platform with integrated bioinformatics utilized patient-aligned model systems was used to identify key factors that help predict response to Compound A and its unique DCI profile.

The test system of assay [13] is HT-29 cells. In words: 3D-TGA. Format: cell-based, human. The conditions noted are these: Homo sapiens, HT-29, read-out: IC50 in 3D-TGA Encorafenib. In a few lines: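 Antiproliferative activity was scored as percentage EdU-positive cells from high-content images of 3D cultures embedded in BME with custom medium under low oxygen (5% O2, 5% CO2, 37° C).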
Assay [14] has as its system A375 cells. In words: 3D-TGA. Format: cell-based. The conditions noted are these: Homo sapiens, A-375, read-out: IC50 in 3D-TGA Encorafenib. Here is the method:
Cells were seeded in 3D cultures in a black-walled, clear-bottom, non-tissue culture treated, 384-well plate (3000 cells per well) using a 1:1 mixture of BME and a custom media and grown in a humidified incubator with 5% CO2 and 5% O2, which approximates capillary levels for each gas, at 37° C. […] Cells were assessed for cell proliferation using EdU cell proliferation staining. […] Cells were permeabilized with 30 μL of filtered 0.5% Triton X-100 in PBS for 20 minutes at room temperature. Samples were washed twice gently with PBS. Cells were stained utilizing click-iT chemistry by adding 20 μL of staining cocktail containing 2 mM copper sulfate, 8 μM sulfo-Cy5-azide, and 20 mg/ml ascorbic acid in PBS and incubated 30-60 minutes at room temperature in dark. […] Plates were imaged with the Molecular Devices Pico ImageXpress. Images were segmented and percentage of cells with EdU incorporation was quantified to calculate antiproliferative effects of the drugs.
Five (5)-ethynyl-2′-deoxyuridine (EdU) data was represented as percentage EdU positive cells quantified by high content imaging from the Molecular Devices ImageXpress® Pico.

Where two headings read alike, the source gives them in different places. Some results are limits rather than exact numbers.

As for `C=CC(=O)Nc1cc(Nc2nccc(-c3cn(C)c4ccccc34)n2)c(OC)cc1N(C)CCN(C)C` [Osimertinib, osimertinib], the 50% inhibitory concentration (IC50) in assay [1] was found to be […]; in [2], […]; in assay [3] it was […]; in [4] (read-out: IC50 in 3D-TGA Osimertinib, agent alone) it was […]; in assay [5] it was […]; in assay [6], […]. Further, the IC50 in [7] stood at […]; in [8], […]; in assay [9] it was […]; in assay [10], […]; in assay [11], 50 nM.

Regarding `COC(=O)N[C@@H](C)CNc1nccc(-c2cn(C(C)C)nc2-c2cc(Cl)cc(NS(C)(=O)=O)c2F)n1` [encorafenib], the “tumor growth inhibition, monotherapy” value in assay [12] is listed as “superior tumor growth inhibition to binimetinib”. For the same molecule, the values for the IC50 in assay [13], in [4] (read-out: IC50 in 3D-TGA Encorafenib) and in [14] were above 1000 nM, above 1000 nM and below 50 nM, respectively.

As usually defined, the IC50 is the point on the concentration scale where inhibition reaches its midpoint.

These data come from patent publication US20260284005A1, “INHIBITING MITOGEN-ACTIVATED PROTEIN (MAP)/ERK KINASE (MEK)1 AND MEK2 AND RELATED METHODS OF TREATMENT” (priority 2023, published 2026).
